In ChEMBL document CHEMBL3259641, “Identification of tertiary sulfonamides as RORc inverse agonists” (Bioorg Med Chem Lett, 2014):

Experiments:
[1] = biological target: T1, Nuclear receptor ROR-alpha (Homo sapiens, UniProt P35398); test: Inverse agonist activity at human GAL4-fused RORa expressed in HEK293 cells after 5 hrs by luciferase reporter gene based transcriptional assay; assay type: cell-based
T1 sequence (P35398 whole entry): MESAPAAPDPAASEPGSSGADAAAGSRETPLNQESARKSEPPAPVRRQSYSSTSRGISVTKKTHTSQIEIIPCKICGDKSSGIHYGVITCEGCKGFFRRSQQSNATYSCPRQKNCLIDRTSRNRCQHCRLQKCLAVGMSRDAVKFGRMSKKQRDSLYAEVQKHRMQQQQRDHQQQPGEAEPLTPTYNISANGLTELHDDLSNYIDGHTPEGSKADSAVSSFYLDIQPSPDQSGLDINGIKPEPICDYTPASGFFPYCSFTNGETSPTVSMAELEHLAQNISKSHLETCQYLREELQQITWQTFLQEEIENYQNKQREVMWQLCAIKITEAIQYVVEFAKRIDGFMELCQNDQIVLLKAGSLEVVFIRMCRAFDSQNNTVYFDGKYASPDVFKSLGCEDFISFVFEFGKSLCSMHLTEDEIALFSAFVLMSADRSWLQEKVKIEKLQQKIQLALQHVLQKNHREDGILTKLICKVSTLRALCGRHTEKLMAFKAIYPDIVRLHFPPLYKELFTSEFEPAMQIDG

[2] = biological target: T2, Nuclear receptor ROR-beta (Homo sapiens, UniProt Q92753); test: Inverse agonist activity at human GAL4-fused RORb expressed in HEK293 cells after 5 hrs by luciferase reporter gene based transcriptional assay; assay type: cell-based
T2 sequence (Q92753 whole entry): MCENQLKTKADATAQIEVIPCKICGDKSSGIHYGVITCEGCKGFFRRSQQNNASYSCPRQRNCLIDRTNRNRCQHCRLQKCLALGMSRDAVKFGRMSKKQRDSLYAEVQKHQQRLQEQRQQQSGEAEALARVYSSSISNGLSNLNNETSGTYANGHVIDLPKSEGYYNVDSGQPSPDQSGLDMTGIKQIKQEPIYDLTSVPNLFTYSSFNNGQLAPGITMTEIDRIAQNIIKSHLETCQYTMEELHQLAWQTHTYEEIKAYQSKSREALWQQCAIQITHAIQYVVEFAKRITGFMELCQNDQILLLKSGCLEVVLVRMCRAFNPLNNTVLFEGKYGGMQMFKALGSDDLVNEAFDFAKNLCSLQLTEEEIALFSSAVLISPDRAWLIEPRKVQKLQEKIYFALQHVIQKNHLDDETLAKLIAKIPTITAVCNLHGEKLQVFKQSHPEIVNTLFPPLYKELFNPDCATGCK

[3] = biological target: T3, Oxysterols receptor LXR-beta (Homo sapiens, UniProt P55055); test: Inverse agonist activity at human GAL4-fused LXRbeta expressed in HEK293 cells assessed as inhibition of T0901317-induced transcriptional activity after 5 hrs by luciferase reporter gene assay; assay type: cell-based
T3 sequence (P55055 whole entry): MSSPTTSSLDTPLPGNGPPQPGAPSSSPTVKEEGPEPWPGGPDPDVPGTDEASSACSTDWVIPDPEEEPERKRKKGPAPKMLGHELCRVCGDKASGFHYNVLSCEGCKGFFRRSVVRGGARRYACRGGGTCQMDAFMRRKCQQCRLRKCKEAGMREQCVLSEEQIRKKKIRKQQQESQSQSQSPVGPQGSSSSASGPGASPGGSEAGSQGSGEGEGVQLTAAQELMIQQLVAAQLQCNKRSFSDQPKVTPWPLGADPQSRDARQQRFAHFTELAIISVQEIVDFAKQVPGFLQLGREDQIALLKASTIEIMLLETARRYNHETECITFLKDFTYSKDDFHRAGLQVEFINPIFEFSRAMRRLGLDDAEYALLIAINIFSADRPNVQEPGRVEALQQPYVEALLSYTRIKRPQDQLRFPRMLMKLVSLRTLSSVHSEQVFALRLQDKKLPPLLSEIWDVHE

[4] = biological target: T4, Oxysterols receptor LXR-alpha (Homo sapiens, UniProt Q13133); test: Inverse agonist activity at human GAL4-fused LXRalpha expressed in HEK293 cells assessed as inhibition of T0901317-induced transcriptional activity after 5 hrs by luciferase reporter gene assay; assay type: cell-based
T4 sequence (Q13133 whole entry): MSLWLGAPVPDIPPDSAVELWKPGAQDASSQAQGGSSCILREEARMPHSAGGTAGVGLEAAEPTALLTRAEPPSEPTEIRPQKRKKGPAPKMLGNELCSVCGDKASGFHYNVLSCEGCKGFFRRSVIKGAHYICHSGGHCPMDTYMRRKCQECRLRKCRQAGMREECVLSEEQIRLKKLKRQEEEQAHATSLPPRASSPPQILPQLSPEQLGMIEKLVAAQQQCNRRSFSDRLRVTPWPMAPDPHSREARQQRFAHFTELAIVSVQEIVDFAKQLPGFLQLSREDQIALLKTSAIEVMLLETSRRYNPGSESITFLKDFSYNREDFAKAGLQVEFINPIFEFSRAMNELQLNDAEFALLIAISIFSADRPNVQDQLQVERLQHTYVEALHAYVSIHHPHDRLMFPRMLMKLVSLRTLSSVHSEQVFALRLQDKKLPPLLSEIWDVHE

[5] = biological target: T5, Nuclear receptor ROR-gamma (Homo sapiens, UniProt P51449); test: Displacement of [3H2]25-hydroxycholesterol from human RORc-LBD after 3 hrs by scintillation counting
T5 sequence (P51449 whole entry): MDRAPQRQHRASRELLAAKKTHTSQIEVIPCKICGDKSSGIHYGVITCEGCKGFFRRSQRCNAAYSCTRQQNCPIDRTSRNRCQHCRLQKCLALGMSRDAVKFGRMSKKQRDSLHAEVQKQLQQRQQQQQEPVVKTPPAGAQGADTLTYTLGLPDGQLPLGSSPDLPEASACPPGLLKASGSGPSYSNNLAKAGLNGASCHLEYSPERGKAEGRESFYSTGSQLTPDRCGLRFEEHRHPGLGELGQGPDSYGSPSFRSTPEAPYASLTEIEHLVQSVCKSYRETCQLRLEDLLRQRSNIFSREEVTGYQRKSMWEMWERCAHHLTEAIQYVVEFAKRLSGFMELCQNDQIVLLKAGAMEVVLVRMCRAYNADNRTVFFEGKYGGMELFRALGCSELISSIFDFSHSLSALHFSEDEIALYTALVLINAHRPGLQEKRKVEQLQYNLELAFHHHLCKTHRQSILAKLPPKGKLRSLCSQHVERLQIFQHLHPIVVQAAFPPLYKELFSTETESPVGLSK

[6] = biological target: T5, Nuclear receptor ROR-gamma; test: Inverse agonist activity at an N-terminal 6xHis-GST-tag human RORc-LBD assessed as inhibition of recruitment of the SRC1 co-activator peptide after 3 hrs by time-resolved FRET assay; assay type: functional

| Structure (SMILES) | EC50 [1] [µM] | EC50 [2] [µM] | EC50 [3] [µM] | EC50 [4] [µM] | IC50 [5] [µM] | EC50 [6] [µM] |
| --- | --- | --- | --- | --- | --- | --- |
| CC(C)CN(Cc1ccc(-c2ccc(C#N)nc2)s1)S(=O)(=O)Cc1ccccc1 |  |  |  |  | > 10 |  |
| CC(C)CN(Cc1cccc(-c2ccc(S(C)(=O)=O)cc2)c1)S(=O)(=O)Cc1ccccc1 |  |  |  |  | > 10 | > 10 |
| CC(C)CN(Cc1ccc(-c2ccc(C(N)=O)cc2)cc1)S(=O)(=O)Cc1ccccc1 | > 10 | > 10 | > 10 | > 10 |  |  |

Next, values leading:

| EC50 [1] [µM] | EC50 [2] [µM] | EC50 [3] [µM] | EC50 [4] [µM] | IC50 [5] [µM] | EC50 [6] [µM] | Structure (SMILES) |
| --- | --- | --- | --- | --- | --- | --- |
| 4.2 | 5 |  |  |  |  | CC(C)CN(Cc1ccc(-c2cccc(S(C)(=O)=O)c2)s1)S(=O)(=O)Cc1ccccc1 |
| 2.8 | 2.2 | 3.9 | 3.7 |  |  | CC(C)CN(Cc1ccc(-c2ccc(S(C)(=O)=O)cc2)s1)S(=O)(=O)Cc1ccccc1 |
|  |  |  |  | > 10 | > 10 | CC(C)CN(Cc1cnc(-c2ccc(S(C)(=O)=O)cc2)s1)S(=O)(=O)Cc1ccccc1 |
| 3.8 | 3.7 | 3.8 | 3.6 |  |  | CC(C)CN(Cc1ccc(-c2ccc(NS(C)(=O)=O)cc2)cc1)S(=O)(=O)Cc1ccccc1 |
